Data reported in patent publication US10947271B2, “Antibacterial agents” (THE UNIVERSITY OF QUEENSLAND, priority 2014, dated 2021).

Tests used:
Assay type in all cases: cell-based
Details in all cases: 24 h incubation, visual reading
[1] = tested on: Streptococcus pneumoniae MDR ATCC 700677; experiment: MIC assay, S. pneumoniae MDR ATCC 700677
Procedure, shortened: (§1)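 MHB broth microdilution, twofold series, compounds 8–0.003 μg/ml; mid-log inoculum 5×10e5 CFU/mL; 37° C, 24 h; MIC read visually as lowest concentration without growth.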

[2] = tested on: Enterococcus faecium MDR Van A ATCC 51559; experiment: MIC assay, E. faecium MDR Van A ATCC 51559
Procedure, shortened: as §1

[3] = tested on: Staphylococcus aureus MRSA ATCC 43300; experiment: MIC assay, S. aureus MRSA ATCC 43300
Procedure, shortened: as §1

Row | SMILES | Minimum Inhibitory Concentration (MIC) S. pneumoniae ATCC 700677 [1] | Minimum Inhibitory Concentration (MIC) E. faecium ATCC51559 [2] | Minimum Inhibitory Concentration (MIC) Staph. aureus ATCC43300 [3]
1 | CNC(CC(C)C)C(=O)NC1C(=O)NC(CC(N)=O)C(=O)NC2C(=O)NC3C(=O)NC(C(=O)NC(C(=O)NCCCCC(NC(=O)C(CCCCN)NC(=O)C(CCCCN)NC(=O)C(CCCCN)NC(=O)c4ccc(Oc5ccccc5)cc4)C(=O)O)c4cc(O)cc(O)c4-c4cc3ccc4O)C(O)c3ccc(c(Cl)c3)Oc3cc2cc(c3OC2OC(CO)C(O)C(O)C2OC2CC(C)(N)C(O)C(C)O2)Oc2ccc(cc2Cl)C1O (stereo not drawn) [MCC_000194] | xxx (xxx = 0.1-<1) | x (x = >4) | xxx (xxx = 0.1-<1)
2 | CCCCCCCCCC(=O)N[C@@H](CCCCN1CCCCC1)C(=O)N[C@@H](CCCCNC(=O)[C@H]1NC(=O)[C@H]2NC(=O)[C@H](NC(=O)[C@@H]3NC(=O)[C@H](CC(N)=O)NC(=O)[C@H](NC(=O)[C@@H](CC(C)C)NC)[C@H](O)c4ccc(c(Cl)c4)Oc4cc3cc(c4O[C@@H]3O[C@H](CO)[C@@H](O)[C@H](O)[C@H]3O[C@H]3C[C@](C)(N)[C@H](O)[C@H](C)O3)Oc3ccc(cc3Cl)[C@H]2O)c2ccc(O)c(c2)-c2c(O)cc(O)cc21)C(=O)O [MCC_007328] | xxx (xxx = 0.1-<1) | x (x = >4) | xxx (xxx = 0.1-<1)
3 | CCCCCCCCCC(=O)N[C@@H](CCCNC(=N)N)C(=O)N1CCC(CNC(=O)[C@H]2NC(=O)[C@H]3NC(=O)[C@H](NC(=O)[C@@H]4NC(=O)[C@H](CC(N)=O)NC(=O)[C@H](NC(=O)[C@@H](CC(C)C)NC)[C@H](O)c5ccc(c(Cl)c5)Oc5cc4cc(c5O[C@@H]4O[C@H](CO)[C@@H](O)[C@H](O)[C@H]4O[C@H]4C[C@](C)(N)[C@H](O)[C@H](C)O4)Oc4ccc(cc4Cl)[C@H]3O)c3ccc(O)c(c3)-c3c(O)cc(O)cc32)CC1 [MCC_005484] | xxxxx (xxxxx = <0.01) | x (x = >4) | xxxxx (xxxxx = <0.01)
4 | CCCCCCCCCC(=O)NC(CCCCN)C(=O)NC(CCCNC(=N)N)C(=O)NCCCNC(=O)C1NC(=O)C2NC(=O)C(NC(=O)C3NC(=O)C(CC(N)=O)NC(=O)C(NC(=O)C(CC(C)C)NC)C(O)c4ccc(c(Cl)c4)Oc4cc3cc(c4OC3OC(CO)C(O)C(O)C3OC3CC(C)(N)C(O)C(C)O3)Oc3ccc(cc3Cl)C2O)c2ccc(O)c(c2)-c2c(O)cc(O)cc21 (stereo not drawn) [MCC_005486] | xxxx (xxxx = 0.01-<0.1) | xx (xx = 1-4) | xxxxx (xxxxx = <0.01)
5 | CCCCCCCCCCC(=O)N[C@@H](CCCCN)C(=O)NCCCNC(=O)[C@H]1NC(=O)[C@H]2NC(=O)[C@H](NC(=O)[C@@H]3NC(=O)[C@H](CC(N)=O)NC(=O)[C@H](NC(=O)[C@@H](CC(C)C)NC)[C@H](O)c4ccc(c(Cl)c4)Oc4cc3cc(c4O[C@@H]3O[C@H](CO)[C@@H](O)[C@H](O)[C@H]3O[C@H]3C[C@](C)(N)[C@H](O)[C@H](C)O3)Oc3ccc(cc3Cl)[C@H]2O)c2ccc(O)c(c2)-c2c(O)cc(O)cc21 [MCC_005198] | xxxx (xxxx = 0.01-<0.1) | xx (xx = 1-4) | xxxx (xxxx = 0.01-<0.1)
6 | CCCCCCCCCCCCC(=O)N[C@@H](CCCCN)C(=O)N[C@@H](CCCCN)C(=O)N[C@@H](CCCCNC(=O)[C@H]1NC(=O)[C@H]2NC(=O)[C@H](NC(=O)[C@@H]3NC(=O)[C@H](CC(N)=O)NC(=O)[C@H](NC(=O)[C@@H](CC(C)C)NC)[C@H](O)c4ccc(c(Cl)c4)Oc4cc3cc(c4O[C@@H]3O[C@H](CO)[C@@H](O)[C@H](O)[C@H]3O[C@H]3C[C@](C)(N)[C@H](O)[C@H](C)O3)Oc3ccc(cc3Cl)[C@H]2O)c2ccc(O)c(c2)-c2c(O)cc(O)cc21)C(=O)O [MCC_000349] | xxxxx (xxxxx = <0.01) | xxx (xxx = 0.1-<1) | xxxxx (xxxxx = <0.01)
7 | CNC(=O)C(CCCCNC(=O)C1NC(=O)C2NC(=O)C(NC(=O)C3NC(=O)C(CC(N)=O)NC(=O)C(NC(=O)C(CC(C)C)NC)C(O)c4ccc(c(Cl)c4)Oc4cc3cc(c4OC3OC(CO)C(O)C(O)C3OC3CC(C)(N)C(O)C(C)O3)Oc3ccc(cc3Cl)C2O)c2ccc(O)c(c2)-c2c(O)cc(O)cc21)NC(=O)C(CCCCN)NC(=O)C(CCCCN)NC(=O)Cc1ccc(-c2ccccc2)cc1 (stereo not drawn) [MCC_000512] | xxx (xxx = 0.1-<1) | x (x = >4) | xxx (xxx = 0.1-<1)
8 | CCCCCOc1ccc(C(=O)NCCCCC(NC(=O)c2ccc(OCCCCC)cc2)C(=O)NC(CCCCN)C(=O)NC(CCCCNC(=O)C2NC(=O)C3NC(=O)C(NC(=O)C4NC(=O)C(CC(N)=O)NC(=O)C(NC(=O)C(CC(C)C)NC)C(O)c5ccc(c(Cl)c5)Oc5cc4cc(c5OC4OC(CO)C(O)C(O)C4OC4CC(C)(N)C(O)C(C)O4)Oc4ccc(cc4Cl)C3O)c3ccc(O)c(c3)-c3c(O)cc(O)cc32)C(=O)NC)cc1 (stereo not drawn) [MCC_000502] | xxxxx (xxxxx = <0.01) | xxx (xxx = 0.1-<1) | xxxxx (xxxxx = <0.01)
9 | CNC(=O)C(CCCCNC(=O)C1NC(=O)C2NC(=O)C(NC(=O)C3NC(=O)C(CC(N)=O)NC(=O)C(NC(=O)C(CC(C)C)NC)C(O)c4ccc(c(Cl)c4)Oc4cc3cc(c4OC3OC(CO)C(O)C(O)C3OC3CC(C)(N)C(O)C(C)O3)Oc3ccc(cc3Cl)C2O)c2ccc(O)c(c2)-c2c(O)cc(O)cc21)NC(=O)C(CCCCN)NC(=O)C(CCCCN)NC(=O)c1ccc(Oc2ccc(F)cc2)cc1 (stereo not drawn) [MCC_000514] | xxx (xxx = 0.1-<1) | x (x = >4) | xxx (xxx = 0.1-<1)
10 | CCCCCCCCCC(=O)N[C@@H](CCCNC(=N)N)C(=O)N[C@@H](CCCNC(=N)N)C(=O)N[C@@H](CCCCNC(=O)[C@H]1NC(=O)[C@H]2NC(=O)[C@H](NC(=O)[C@@H]3NC(=O)[C@H](CC(N)=O)NC(=O)[C@H](NC(=O)[C@@H](CC(C)C)NC)[C@H](O)c4ccc(c(Cl)c4)Oc4cc3cc(c4O[C@@H]3O[C@H](CO)[C@@H](O)[C@H](O)[C@H]3O[C@H]3C[C@](C)(N)[C@H](O)[C@H](C)O3)Oc3ccc(cc3Cl)[C@H]2O)c2ccc(O)c(c2)-c2c(O)cc(O)cc21)C(=O)O [MCC_005507] | xxxx (xxxx = 0.01-<0.1) | x (x = >4) | xxxx (xxxx = 0.01-<0.1)
11 | CCCCCCCc1ccc(C(=O)NC(CCCCN)C(=O)NC(CCCCN)C(=O)NC(CCCCNC(=O)C2NC(=O)C3NC(=O)C(NC(=O)C4NC(=O)C(CC(N)=O)NC(=O)C(NC(=O)C(CC(C)C)NC)C(O)c5ccc(c(Cl)c5)Oc5cc4cc(c5OC4OC(CO)C(O)C(O)C4OC4CC(C)(N)C(O)C(C)O4)Oc4ccc(cc4Cl)C3O)c3ccc(O)c(c3)-c3c(O)cc(O)cc32)C(=O)NC)cc1 (stereo not drawn) [MCC_000500] | xxxxx (xxxxx = <0.01) | xx (xx = 1-4) | xxxxx (xxxxx = <0.01)
